Consider 15 compounds from US20250346597A1, “CONDENSED HETEROCYCLIC COMPOUNDS AS INHIBITOR OF DIACYLGLYCEROL KINASES” (BEONE MEDICINES I GMBH, priority 2023, published 2025).

The target in one experiment is DGKζ (Homo sapiens (Human), UniProt Q13574). Description: Biochemical DGK IC50 assay (ADP-Glo, lipid micelle substrate), DGKζ. To be noted: full length DGKζ 0.5 nM, ATP 140 μM, DAG 80 μM. The gist of the method: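 Full-length human His-TEV-tagged DGKζ, expressed in Sf9 cells and purified, was run at room temperature on DAG/PS lipid micelles in 50 mM HEPES, 10 mM MgCl2, 0.01 mM CaCl2 buffer. After 1 h reaction, ADP formed was detected by ADP-Glo luminescence. IC50s came from inhibition across increasing compound concentrations.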
Chain of DGKζ (Q13574 other isoform, or with tags, fused parts or gaps): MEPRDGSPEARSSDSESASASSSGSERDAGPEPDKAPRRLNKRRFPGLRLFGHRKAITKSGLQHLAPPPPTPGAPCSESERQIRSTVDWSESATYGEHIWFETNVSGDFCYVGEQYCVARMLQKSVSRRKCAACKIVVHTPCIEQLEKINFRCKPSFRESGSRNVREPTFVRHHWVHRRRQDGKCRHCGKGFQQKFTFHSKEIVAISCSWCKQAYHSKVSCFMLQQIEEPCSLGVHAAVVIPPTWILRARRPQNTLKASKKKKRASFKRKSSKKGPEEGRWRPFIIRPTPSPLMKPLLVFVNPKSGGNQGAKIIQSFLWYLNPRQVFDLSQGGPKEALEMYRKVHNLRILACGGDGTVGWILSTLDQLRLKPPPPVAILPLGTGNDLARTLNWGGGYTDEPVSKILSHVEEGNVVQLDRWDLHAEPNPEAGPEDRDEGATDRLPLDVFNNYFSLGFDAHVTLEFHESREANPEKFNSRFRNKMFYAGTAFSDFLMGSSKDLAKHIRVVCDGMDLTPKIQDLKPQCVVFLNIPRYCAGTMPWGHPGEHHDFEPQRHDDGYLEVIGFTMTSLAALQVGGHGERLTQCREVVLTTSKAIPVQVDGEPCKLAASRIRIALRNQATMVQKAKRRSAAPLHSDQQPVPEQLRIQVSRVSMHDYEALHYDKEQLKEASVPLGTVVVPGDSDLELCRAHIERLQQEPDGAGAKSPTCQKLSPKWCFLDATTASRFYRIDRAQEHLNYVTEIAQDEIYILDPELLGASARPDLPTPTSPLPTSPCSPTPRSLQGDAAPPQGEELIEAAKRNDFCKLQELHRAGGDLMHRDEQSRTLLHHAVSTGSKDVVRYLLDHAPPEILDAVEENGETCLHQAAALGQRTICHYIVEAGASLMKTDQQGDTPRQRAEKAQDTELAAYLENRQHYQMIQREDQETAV
Background: ADP-Glo first removes unused ATP, then detects ADP through luciferase.

Another experiment has as its target DGKα (Homo sapiens (Human), UniProt P23743). Description: Biochemical DGK IC50 assay (ADP-Glo, lipid micelle substrate), DGKα. Note: full length DGKα 7.5 nM. To be noted: full length DGKα […], ATP 140 μM, DAG 80 μM. The procedure, abridged: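 Full-length human DGKα assayed by ADP-Glo with DAG/PS lipid micelle substrate at room temperature in 50 mM HEPES, 10 mM MgCl2, 0.01% BSA, 0.1 mM Na3VO4, 0.005% Tween-20, 0.01 mM CaCl2.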

Chain of DGKα (P23743 whole entry): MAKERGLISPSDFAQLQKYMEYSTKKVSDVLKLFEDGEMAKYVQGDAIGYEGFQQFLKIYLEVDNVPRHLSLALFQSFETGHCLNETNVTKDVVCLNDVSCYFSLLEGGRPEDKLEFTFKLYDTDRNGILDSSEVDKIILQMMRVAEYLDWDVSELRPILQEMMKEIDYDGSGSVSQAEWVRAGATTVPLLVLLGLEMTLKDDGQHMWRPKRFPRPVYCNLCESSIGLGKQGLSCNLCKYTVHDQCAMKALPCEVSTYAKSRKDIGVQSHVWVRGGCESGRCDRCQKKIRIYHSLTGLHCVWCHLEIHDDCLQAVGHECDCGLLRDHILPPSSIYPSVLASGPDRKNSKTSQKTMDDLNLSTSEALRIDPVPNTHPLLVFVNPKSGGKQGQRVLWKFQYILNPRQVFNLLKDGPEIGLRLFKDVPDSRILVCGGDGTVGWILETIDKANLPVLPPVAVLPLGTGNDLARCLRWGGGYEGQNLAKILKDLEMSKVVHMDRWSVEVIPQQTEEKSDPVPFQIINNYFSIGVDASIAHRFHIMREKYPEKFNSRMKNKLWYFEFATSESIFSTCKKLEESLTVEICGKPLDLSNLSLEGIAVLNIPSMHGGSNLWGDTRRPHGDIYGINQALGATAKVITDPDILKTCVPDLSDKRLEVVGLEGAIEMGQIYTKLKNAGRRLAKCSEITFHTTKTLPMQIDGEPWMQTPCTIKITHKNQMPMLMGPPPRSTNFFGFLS

What is called IC50 is the point on the concentration scale where inhibition reaches its midpoint. Read a low IC50 as higher potency. In the case of `CC[C@H]1CN(C(C)c2ccc3nc(C)sc3n2)[C@H](CC)CN1c1cc(=O)n(C)c2cn(CC#N)nc12` (single isomer, unassigned) [Compound A133b], the IC50 against DGKζ came out at 24 nM; against DGKα, 61 nM.
Consider `[2H]C([2H])([2H])n1c(=O)cc(N2C[C@@H](CC)N(C(C)c3ccc4nc(C)sc4n3)C[C@@H]2CC)c2nn(CC#N)cc21` (single isomer, unassigned) [Compound A134a], for which the IC50 at DGKζ was 3920 nM; on DGKα, 3390 nM.
On the same counts, the results for `[2H]C([2H])([2H])n1c(=O)cc(N2C[C@@H](CC)N(C(C)c3ccc4nc(C)sc4n3)C[C@@H]2CC)c2nn(CC#N)cc21` (single isomer, unassigned) [Compound A134b] are 22 nM and 108 nM.
On the same counts, the results for `CCC(c1ccc(C(F)(F)F)cc1)N1C[C@H](CC)N(c2cc(=O)n(C)c3cn(CC#N)nc23)C[C@H]1CC` (single isomer, unassigned) [Compound A135a] are 96 nM and 86 nM.
On the same counts, the results for `CCC(c1ccc(C(F)(F)F)cc1)N1C[C@H](CC)N(c2cc(=O)n(C)c3cn(CC#N)nc23)C[C@H]1CC` (single isomer, unassigned) [Compound A135b] are 3750 nM and 483 nM.
As to `CC#CCn1cc2c(n1)c(N1C[C@@H](CC)N(C(C)c3ccc4nc(C)sc4c3F)C[C@@H]1CC)cc(=O)n2C` (single isomer, unassigned) [Compound A138a], the IC50 was 143 nM against DGKζ and 311 nM at DGKα.
Taken in the same sequence, the figures for `CC#CCn1cc2c(n1)c(N1C[C@@H](CC)N(C(C)c3ccc4nc(C)sc4c3F)C[C@@H]1CC)cc(=O)n2C` (single isomer, unassigned) [Compound A138b] were 3280 nM and 2040 nM.
On the same counts, the results for `CC[C@H]1CN(C(C)c2ccc3nc(C)sc3n2)[C@H](CC)CN1c1c(C#N)c(=O)n(C)c2cn(CC#N)nc12` (single isomer, unassigned) [Compound A140a] are 3380 nM and 840 nM.
On the same counts, the results for `CC[C@H]1CN(C(C)c2ccc3nc(C)sc3n2)[C@H](CC)CN1c1c(C#N)c(=O)n(C)c2cn(CC#N)nc12` (single isomer, unassigned) [Compound A140b] are 45 nM and 93 nM.
`CC#CCn1cc2c(n1)c(N1C[C@@H](CC)N(C(C)c3ccc4sc(C)nc4c3F)C[C@@H]1CC)cc(=O)n2C` (single isomer, unassigned) [Compound A141a]: the values for the IC50 on DGKζ and at DGKα were 17.6 nM and 1390 nM, respectively.
Take `CC#CCn1cc2c(n1)c(N1C[C@@H](CC)N(C(C)c3ccc4sc(C)nc4c3F)C[C@@H]1CC)cc(=O)n2C` (single isomer, unassigned) [Compound A141b]: the IC50 against DGKζ was 641 nM; against DGKα, 6190 nM.
On the same counts, the results for `[2H]C([2H])([2H])C(c1ccc2nc(C)sc2n1)N1C[C@H](CC)N(c2cc(=O)n(C([2H])([2H])[2H])c3cn(CC#N)nc23)C[C@H]1CC` (single isomer, unassigned) [Compound A142a] are 1350 nM and 1580 nM.
Taken in the same sequence, the figures for `[2H]C([2H])([2H])C(c1ccc2nc(C)sc2n1)N1C[C@H](CC)N(c2cc(=O)n(C([2H])([2H])[2H])c3cn(CC#N)nc23)C[C@H]1CC` (single isomer, unassigned) [Compound A142b] were 20 nM and 108 nM.
Consider `CC[C@H]1CN(C(C)c2ccc3nc(COC)sc3n2)[C@H](CC)CN1c1cc(=O)n(C)c2cn(CC#N)nc12` (single isomer, unassigned) [Compound A143a], for which the values for the IC50 against DGKζ and against DGKα were 2150 nM and 3180 nM, respectively.
Taken in the same sequence, the figures for `CC[C@H]1CN(C(C)c2ccc3nc(COC)sc3n2)[C@H](CC)CN1c1cc(=O)n(C)c2cn(CC#N)nc12` (single isomer, unassigned) [Compound A143b] were 39 nM and 153 nM.
